Holding throughout (format): cell-based, human
One assay relates to FPR2/ALX protein. The assay can be described thus: FPR2/ALX protein expression by flow cytometry in MDA-MB231 cells. Conditions: 10 μM 5-aza-dC, 72 h, Δ MFI vs untreated cells. On the technique in general: Flow cytometry measures light scatter and fluorescence of single cells or particles in a stream.
In the next assay the test system is FPR2/ALX mRNA. Nature of the assay: FPR2/ALX mRNA expression by real time PCR in MDA-MB231 cells. For orientation: In qPCR the cycle at which signal appears reflects the starting amount.
A further assay has as its system FPR2/ALX promoter. Nature of the assay: Luciferase reporter gene assay of FPR2/ALX promoter constructs P-1500 and P-346 in MDA-MB231 cells. Conditions: MDA-MB231 cells transfected 24 h, then exposed 24 h; LXA4 10 nM, dexametasone 1 μM, IFN-γ 5-100 nM, LPS 500 nM; vs vehicle. On the procedure: Left panel. MDA-MB231 cells were transfected with P-1500 or P-346. Twenty four hours post-transfection, cells were exposed to ethanol vehicle or 10 nM LXA4 for additional 24 h. Bars depict mean±S.D. of n=4 carried out with duplicates. *, P=0.018; **, P=0.0076 vs vehicle-treated cells. Right panel. MDA-MB231 cells were exposed to LXA4 (10 nM) for the indicated time. FPR2/ALX mRNA was quantitated by real-time PCR. Bars show mean±S.D. of n=3. *, P=0.05.
Having localized the TSS, a 1500 bp fragment of human genomic DNA (−1449/+51 from the TSS) was amplified by PCR, cloned into the promoterless pGL3 vector containing the luciferase reporter gene. For this purpose, Genomic DNA was extracted from the THP1 cells using the Wizard Genomic DNA Purification Kit (Promega, Milan, Italy). Two primers, (For 1500 bp e Rev 1500 bp, Table 1) were designed on the basis of genomic DNA sequence of 5′-flanking region of the FPR2/ALX gene to amplify a section of DNA starting −1449 bp upstream of the identified transcription start site (+1). In addition to the template (100 ng of genomic DNA) and primers For 1500 bp and Rev 1500 bp (100 ng), the reaction mixture contained 0.2 mM dNTPs, Pfu DNA polymerase buffer and 0.05 units of Jumpstart Taq DNA polymerase (Sigma-Aldrich), PCR consisted of 35 cycles of amplification (30 seconds at 94° C., 30 s at 52° C., and 120 seconds at 72° C.). PCR products were recovered from low melting agarose gel and used as template in PCR reactions using primers For 1500 and Rev 1500, added of Kpn I and Xho I restriction sites, respectively (Table 1). PCR products were resolved by 1.5% agarose gel elecrophoresis, purified and ligated into the pGL3-basic reporter vector, which was previously digested with Kpn I and Xho I restriction endonuclease. […] The promoter activity of the construct was analyzed by transfection into MCF7 and MDA-MB231 cells. […] A slightly higher activity was detected in MDA-MB231 cells (18 fold over empty vector) compared to MCF7 cells (14 fold over empty vector). […]
(In general: A reporter such as luciferase makes a cellular process visible.)

For `Nc1ncn([C@H]2C[C@H](O)[C@@H](CO)O2)c(=O)n1` [5-aza-dC, 5-aza-2′-deoxycytidine], in the assay on FPR2/ALX protein, the “increase in FPR2/ALX protein expression” value was around 3 fold. The “increase in FPR2/ALX mRNA expression” value in the assay with FPR2/ALX mRNA (MDA-MB231 cells, 10 μM 5-aza-dC, 72 h, vs untreated cells) is reported as around 10 fold. For `CCCCCC(O)/C=C/C=C\C=C\C=C\C(O)C(O)CCCC(=O)O` (stereo not drawn) [LXA4, 5,6,155-trihydroxy-7,9,11,13-trans-1′-cis-eicosatetraenoic acid], the “FPR2/ALX mRNA levels” value with FPR2/ALX mRNA (MDA-MB231 cells exposed to LXA4 10 nM, real-time PCR) is on record as “enhanced”. For the same compound, the “luciferase activity of P-1500 and P-346” value with FPR2/ALX promoter is “significantly enhanced”. In the case of `C[C@@H]1C[C@H]2[C@@H]3CCC4=CC(=O)C=C[C@]4(C)[C@@]3(F)[C@@H](O)C[C@]2(C)[C@@]1(O)C(=O)CO` [dexametasone], in the assay on FPR2/ALX promoter, the “luciferase activity of P-1500 and P-346” value is reported as “did not give appreciable changes”. On the same count and under the same terms, the result for IFN-γ: gamma interferon, cytokine reads “did not give appreciable changes”.
